Source: ChEMBL document CHEMBL1156866 (J Med Chem, 2010)
Values belong to the compound of their own block, whether it stands above or below them. Activity calls are given as the source filed them. The rule behind the calls is not given here.

What was measured:
[1] = biological target: T1, Reduced folate transporter (Homo sapiens) (UniProt P41440); test: Displacement of [3H]MTX from human RFC expressed in Chinese hamster PC43-10 cells at 10 uM; format: cell-based
T1 sequence (whole entry): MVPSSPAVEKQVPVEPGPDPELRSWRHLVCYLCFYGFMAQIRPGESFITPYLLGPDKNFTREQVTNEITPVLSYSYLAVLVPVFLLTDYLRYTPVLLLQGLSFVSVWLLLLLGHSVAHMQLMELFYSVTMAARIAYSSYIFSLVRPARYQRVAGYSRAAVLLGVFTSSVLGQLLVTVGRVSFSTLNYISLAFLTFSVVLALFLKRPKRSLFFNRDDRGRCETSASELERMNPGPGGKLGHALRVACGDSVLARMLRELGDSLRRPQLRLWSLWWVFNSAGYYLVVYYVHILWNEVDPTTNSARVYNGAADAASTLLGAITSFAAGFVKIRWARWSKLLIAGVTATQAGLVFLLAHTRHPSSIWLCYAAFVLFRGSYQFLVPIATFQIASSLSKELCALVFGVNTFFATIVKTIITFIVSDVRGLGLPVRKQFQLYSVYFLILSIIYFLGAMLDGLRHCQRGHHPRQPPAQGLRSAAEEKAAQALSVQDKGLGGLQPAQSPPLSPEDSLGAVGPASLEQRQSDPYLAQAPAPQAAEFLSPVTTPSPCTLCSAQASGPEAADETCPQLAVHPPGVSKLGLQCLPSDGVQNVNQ

[2] = biological target: Folate receptor beta (Homo sapiens) (UniProt P14207); test: Displacement of [3H]folic acid from human FRbeta expressed in Chinese hamster D4 cells relative to unlabeled folic acid; format: cell-based
[3] = cells; details: Cricetulus griseus, PC43-10, 96 h
[4] = tested on: R2; test: cells; details: Homo sapiens, R2, 96 h
[5] = cells; details: Cricetulus griseus, RT16, 96 h
[6] = cells; details: Cricetulus griseus, RT16, 96 h; remark: listed apart in the source
[7] = tested on: R2; test: cells; details: Homo sapiens, R2, 96 h; remark: listed apart in the source
[8] = cells; details: Cricetulus griseus, 96 h
[9] = tested on: KB; test: cells; details: Homo sapiens, 96 h
[10] = tested on: IGROV-1; test: cells; details: Homo sapiens, IGROV-1, 96 h
[11] = tested on: IGROV-1; test: cells; details: Homo sapiens, IGROV-1, 96 h; remark: listed apart in the source
[12] = biological target: Folate receptor alpha (Homo sapiens) (UniProt P15328); test: Displacement of [3H]folic acid from human FRalpha expressed in Chinese hamster RT16 cells relative to unlabeled folic acid; format: cell-based
[13] = biological target: T2, Proton-coupled folate transporter (Homo sapiens, UniProt Q96NT5); test: Displacement of [3H]MTX from human PCFT expressed in Chinese hamster R2 cells at pH 6.8 by Dixon plot; format: cell-based
T2 sequence (Q96NT5 whole entry): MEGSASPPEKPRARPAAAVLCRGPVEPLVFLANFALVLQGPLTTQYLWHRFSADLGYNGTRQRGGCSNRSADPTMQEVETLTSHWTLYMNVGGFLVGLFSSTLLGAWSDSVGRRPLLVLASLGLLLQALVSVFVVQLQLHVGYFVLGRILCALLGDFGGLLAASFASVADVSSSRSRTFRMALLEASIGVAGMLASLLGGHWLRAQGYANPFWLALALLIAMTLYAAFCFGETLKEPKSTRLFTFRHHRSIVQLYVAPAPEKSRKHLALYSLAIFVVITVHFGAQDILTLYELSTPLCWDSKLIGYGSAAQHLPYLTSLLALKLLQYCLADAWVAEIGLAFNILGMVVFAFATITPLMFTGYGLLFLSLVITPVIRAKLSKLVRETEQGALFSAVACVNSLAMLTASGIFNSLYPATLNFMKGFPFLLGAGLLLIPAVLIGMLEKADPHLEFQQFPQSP

[14] = biological target: T2, Proton-coupled folate transporter; test: Displacement of [3H]MTX from human PCFT expressed in Chinese hamster R2 cells at pH 5.5 by Dixon plot; format: cell-based
[15] = cells; details: Cricetulus griseus, D4, 96 h
[16] = tested on: KB; test: Antitumor activity against human KB cells xenografted in folate deficient diet fed ICR SCID mouse assessed as tumor cell kill at 180 mg/kg, iv administered as Q4dx4 schedule starting from 4 days post tumor implantation; format: functional
[17] = tested on: KB; test: Antitumor activity against human KB cells xenografted in folate deficient diet fed ICR SCID mouse assessed as tumor cell kill at 180 mg/kg, iv administered as Q4dx4 schedule starting from 29 days post tumor implantation; format: functional
[18] = tested on: KB; test: Antitumor activity against human KB cells xenografted in folate deficient diet fed ICR SCID mouse assessed as tumor cell killing at 112.5 mg/kg, iv administered as Q4dx4 schedule starting from 29 days post tumor implantation; format: functional
[19] = tested on: KB; test: cells; details: Homo sapiens, 96 h; remark: listed apart in the source
[20] = cells; details: Cricetulus griseus, D4, 96 h; remark: listed apart in the source

Chain of Folate receptor beta (Homo sapiens) (P14207 17-230 limits assumed): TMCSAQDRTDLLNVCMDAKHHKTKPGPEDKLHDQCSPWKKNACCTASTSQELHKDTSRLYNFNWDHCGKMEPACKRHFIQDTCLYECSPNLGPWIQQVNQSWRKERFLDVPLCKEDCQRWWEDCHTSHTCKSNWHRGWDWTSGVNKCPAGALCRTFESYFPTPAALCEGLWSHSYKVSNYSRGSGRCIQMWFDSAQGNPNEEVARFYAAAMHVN
Chain of Folate receptor alpha (Homo sapiens) (P15328 25-234 limits assumed): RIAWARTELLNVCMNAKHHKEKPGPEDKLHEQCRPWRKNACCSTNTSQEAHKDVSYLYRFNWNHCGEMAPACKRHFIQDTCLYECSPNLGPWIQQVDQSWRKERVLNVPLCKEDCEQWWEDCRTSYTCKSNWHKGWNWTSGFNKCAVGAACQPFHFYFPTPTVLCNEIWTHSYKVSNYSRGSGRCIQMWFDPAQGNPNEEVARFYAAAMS

Structure (SMILES): Cc1nc(=O)c2cc(CN(C)c3ccc(C(=O)N[C@@H](CCC(=O)O)C(=O)O)s3)ccc2[nH]1
inhibition [1]: > 50%

Structure (SMILES): Nc1nc(N)c2nc(CNc3ccc(C(=O)N[C@@H](CCCNC(=O)c4ccccc4C(=O)O)C(=O)O)cc3)cnc2n1 [TALOTREXIN]
IC50 [3]: 1.28 nM | IC50 [4]: > 1000 nM | IC50 [5]: 409 nM | IC50 [6]: 864 nM | IC50 [7]: > 1000 nM | IC50 [8]: > 1000 nM | IC50 [9]: 5.26 nM | IC50 [10]: 3.47 nM | IC50 [11]: 2.47 nM

Structure (SMILES): Nc1nc2[nH]c(CCCCCc3ccc(C(=O)N[C@@H](CCC(=O)O)C(=O)O)s3)cc2c(=O)[nH]1
relative binding affinity (RBA) [12]: 0.9 | relative binding affinity (RBA) [2]: 1.1 | Ki [13]: 2230 nM | Ki [14]: 100 nM | Activity [1]: inactive | IC50 [15]: > 1000 nM | IC50 [7]: 101 nM | IC50 [8]: > 1000 nM

Structure (SMILES): Nc1nc2[nH]c(CCCCc3ccc(C(=O)N[C@@H](CCC(=O)O)C(=O)O)s3)cc2c(=O)[nH]1
Activity [1]: inactive | LCK [16]: 3.5 | LCK [17]: 3.7 | LCK [18]: 3.8 | IC50 [3]: > 1000 nM | IC50 [4]: > 1000 nM | IC50 [5]: 1.82 nM | IC50 [6]: > 1000 nM | IC50 [15]: > 1000 nM | IC50 [7]: 43.4 nM | IC50 [8]: > 1000 nM | IC50 [19]: > 1000 nM | IC50 [11]: > 1000 nM

Structure (SMILES): Nc1nc2c(c(=O)[nH]1)C[C@@H](CCc1ccc(C(=O)N[C@@H](CCC(=O)O)C(=O)O)cc1)CN2
Activity [12]: Active | Activity [2]: Active | inhibition [1]: > 50%

More lines, now with the values ahead:

inhibition [1]: > 50%
Structure (SMILES): Nc1nc(=O)c2c([nH]1)NCC(CNc1ccc(C(=O)N[C@@H](CCC(=O)O)C(=O)O)cc1)N2C=O (mixture of isomers)

Activity [2]: inactive | inhibition [1]: > 50%
Structure (SMILES): Nc1nc2[nH]cc(CCc3ccc(C(=O)N[C@@H](CCC(=O)O)C(=O)O)cc3)c2c(=O)[nH]1

Activity [12]: inactive | Activity [2]: inactive
Structure (SMILES): CN(Cc1cnc2nc(N)nc(N)c2n1)c1ccc(C(=O)N[C@@H](CCC(=O)O)C(=O)O)cc1

relative binding affinity (RBA) [12]: 0.6 | relative binding affinity (RBA) [2]: 0.4 | Activity [1]: inactive | IC50 [20]: > 1000 nM | IC50 [15]: > 1000 nM | IC50 [8]: > 1000 nM
Structure (SMILES): Nc1nc2[nH]c(CCCCCCc3ccc(C(=O)N[C@@H](CCC(=O)O)C(=O)O)s3)cc2c(=O)[nH]1
